Data set [1] in a line: solubility in DMF. The class given is physicochemical. The method, then: The reaction set-up used a T-mixer at 20° C. prior to injecting the solution of 4 into the heated glass reactor chip that was held at 80 or 95° C. […] Based on these findings, we sought to modify our strategy for execution of this reaction in flow.
Data set [2] concerns FLT-3. As to conditions: cited from earlier work.
Data set [3] deals with RET and its mutant forms. To be noted: compared with reported RET inhibitors; cited from earlier work.

Values joined by “and” are separate entries in the source; they are usually repeats but may differ in a detail not shown here. Equal values may be shown once.

Broadly, the solubility is the concentration that dissolves in the medium under given conditions. High values mean a readily soluble substance, low ones a poorly soluble substance. Regarding `Nc1ncc(Br)c2cccnc12` [compound 4, 5-bromo-8-amino-1,7-naphthyridine], the solubility in data set [1] (20° C. in DMF) was 14.6 mg/ml and 0.065 M; in data set [1] (20° C. in DMF, after recrystallizing twice (EtOH, then EtOAc)), 0.0785 M and 17.6 mg/ml; in data set [1] (55° C. in DMF), 38.1 mg/ml and 0.170 M.

On to `CN1CCN(Cc2ccc(NC(=O)c3cncc(C#Cc4cnc(N)c5ncccc45)c3)cc2C(F)(F)F)CC1` [HSN608, 5-((8-Amino-1,7-naphthyridin-5-yl)ethynyl)-N-(4-((4-methylpiperazin-1-yl)methyl)-3-(trifluoromethyl)phenyl)nicotinamide], for which the “potency toward inhibition of all FLT-3 forms” value in data set [2] is listed as “high potency”. The “inhibition activity of RET and its mutant forms” value in data set [3] is listed as “better than the reported RET inhibitors”.
